We go through 2 compounds from paper PMC12169104, “Towards the development of supramolecular self-associating amphiphiles as antibiofilm agents against Pseudomonas aeruginosa and Candida albicans biofilms” (Journal of Materials Chemistry. B, 2025).

Series [1] has as its system P. aeruginosa (PAO1) biofilms. In words: Biofilm inhibition, XTT metabolic assay. The format is cell-based, Pseudomonas aeruginosa. To be noted: 2.56 mM, Fig. 7(a). The method, then:
Initially, the ability of SSAs 1–5 to inhibit biofilm formation was determined against P. aeruginosa (PAO1) biofilms through an XTT metabolic assay, used to determine the viability of cells within a biofilm (Section S4, ESI ^†).[57] […] We believe that this may indicate that SSAs which contain a squaramide residue may experience an additional barrier to eliciting an antimicrobial effect that is concentration dependent.
Section S4: Microbial materials and methods
General remarks: The reference strains, Pseudomonas aeruginosa PAO1 and Candida albicans SC5314,
were used in this study. The strains were stored at −80 °C in nutrient broth (NB) (1 gL–1 meat extract, 2
gL–1 yeast extract, 5 gL–1 peptone, and 8 gL–1 sodium chloride) supplemented with 25 and 15 % (v/v)
glycerol, respectively. Before each assay, the P. aeruginosa and C. albicans strains were cultured from
the frozen stock onto nutrient agar (NA) (1 gL –1 […], 2 gL–1 yeast extract, 5 gL–1 peptone, 8 gL–
1 sodium chloride, 20 gL–1 agar) and yeast malt extract (YM) agar (3 gL–1 malt extract, 3 gL–1 yeast […]
for 48 hours at 37 °C and OD measurement (at a wavelength of 595 nm, OD 595) (EZ Read 800 Research, […]
introduced to each well. The plates were incubated for 3 hours at 37 °C in the dark and the absorbance
measured at 492 nm using a microtiter plate reader (EZ Read 800 Research, Biochrom, England). […]
evaluated. […]
(In general: Formazan colour is commonly taken as a measure of viable cells.)

A short description of series [2]: Kinetic solubility determination in PBS pH 7.4. Format: physicochemical. To be noted: phosphate buffered saline, aqueous buffer, kinetic from dmso stock, PBS pH 7.4, 300 µM nominal, 2 hours at 25°C. The method, then:
Section S5: In vitro and in vivo studies
These studies were performed by Contract Research Organisation (CRO) Pharmaron. The methodology provided within the ESI is published within the express permission of this organisation.
The percentage of a compound recovered during the analysis process should be 100 %; any deviation from this value indicates experimental limitations such as unintended potential non-specific binding events to experimental equipment, solubility issues, etc.
In vitro Absorption, Distribution and Metabolism studies methods: […]
The ionisation
Kinetic Solubility Determination in PBS pH 7.4:
The stock solutions of test and control compounds were prepared in DMSO at 10 mM. From this a 300 µM solution was prepared in duplicate in 100 mM Phosphate Buffered Saline (PBS, pH 7.4 ± 0.1). These solutions were then shaken at 1100rpm for 2 hours at 25°C. Following incubation, the samples were filtered using a vacuum manifold. The filtrate was analysed and quantified against a standard of known concentration using liquid chromatography mass -spectrometry (LC -MS/MS). […]
coupled to a Sciex 4500 mass spectrometer (AB Inc., Illinois) Separation of compounds was achieved using an XSelect HSS T3 column (2.5µm, 50 x 2.1 mm) (Waters Ltd., Wilmslow) at a temperature of 40°C and a binary mobile phase gradient at a flow rate of 0.8 mL/min. […]

Values after ≈ are worked out from the molar mass of the structure shown.

As to `O=c1c(NCCCS(=O)(=O)O)c(Nc2ccc(C(F)(F)F)cc2)c1=O` [SSA 4], the “Inhibition of biofilm formation” value in series [1] is listed as “completely inhibit biofilm formation”.
For the compound `O=C(O)CNc1c(Nc2ccc(C(F)(F)F)cc2)c(=O)c1=O` [SSA 5], the “Inhibition of biofilm formation” value in series [1] is on record as “completely inhibit biofilm formation”. In addition, the solubility (usually the concentration that dissolves in the medium under given conditions) at 2 h in series [2] was 273 µM (≈ 85.8 µg/mL).
